What was measured:
[1] = target: Full length G2019 human LRRK2 (Homo sapiens (Human), UniProt Q5S007); test: Full length G2019 human LRRK2 inhibition mass spectrometry assay; type: biochemical; details: Full length Flag-LRRK2, 25 uM LRRKtide, 2 mM ATP; read-out: Full length G2019 human LRRK2 Inhibition mass spectrometry assay (pIC50) (converted)
Experimental: Mass Spectrometer Settings • LRRKtide Detection settings: Q1 mass 644.8 Da, Q3 mass 638.8, declustering potential 76 volts, collision energy 37 volts, CXP 34 volts • Phospho-LRRKtide Detection settings: Q1 mass 671.4 Da, Q3 mass 638.8, Declustering potential 76 volts, Collision energy 37 volts, CXP 34 volts. • A C4 cartridge was used and running buffers were: A (aqueous) 0.1% formic acid in water B (organic) 0.1% formic acid, 80% acetonitrile, 20% water • 5. Data was analysed using ActivityBase software (IDBS). A percent conversion from LRRKtide to Phospho-LRRKtide was calculated using the following formula: % conversion=(Phospho-LRRKtide product peak area/(Phospho-LRRKtide product peak area+LRRKtide substrate peak area))*100 2) Full Length G2019 Human LRRK2 Inhibition Mass Spectrometry Assay Insect Cell Cultures
Sf9 insect cells (Invitrogen Life Technologies, Carlsbad, Calif.) were maintained at 27° C. in SF 900 II SFM in 500-ml stationary flasks. The cells were maintained in exponential growth phase and subcultured twice per week. For larger volumes, cells were grown in 2-liter shaker flasks (Erlenmeyer, Corning) while being agitated with 120 rpm at 27° C. incubator shaker.
Human G2019 LRRK2 Plasmids Preparation
Primers Used for PCR Cloning:
• pHTBV-F: SEQ ID No: 1 • LRRK2 wt-F1: SEQ ID No: 2 • LRRK2 wt-R1: SEQ ID No: 3 • LRRK2 wt-F2: SEQ ID No: 4 • LRRK2 wt-R2: SEQ ID No: 5 • LRRK2 wt-F3: SEQ ID No: 6 • pHTBV-R: SEQ ID No: 7
The primers described above were used to amplify full length human LRRK2 (amino acids from 1-2527) with N terminal Flag tag from BioCat 116313 using high fidelity PCR polymerase KOD-Plus according to the manufacturer's instructions (KOD-211, TOYOBO). The PCR product was digested with BamHI and KpnI and ligated into BamHI and KpnI digested pHTBV1mcs3 (BioCat 127555). The sequence of the target fragment was confirmed by DNA sequencing. The construct BioCat141351 was generated by Novoprotein.
The G2019 full length Flag-LRRK2 coding sequence is SEQ ID No: 8.
The translated protein sequence for human G2019 full length LRRK2 flag tagged protein is SEQ ID No: 9.
Generation of the BacMam Virus
To generate the recombinant BacMam virus, SF9 cells were seeded in 6-well tissue culture dishes at 9×10^5 cells/well and allowed to attach for 20 min. Transfection procedure was followed using AESOP AP5911v2. Briefly, DH10Bac competent cells (10361-012, Invitrogen) were transformed by the genotypically normal human LRRK2 BacMam plasmid to generate the recombinant baculovirus DNA. The Sf9 insect cells were co-transfected with the mixture of recombinant baculovirus DNA and cellfectin (10362-100, Invitrogen). After 4 h of incubation at 27° C., the transfection media was replaced with Sf-900 III SFM medium containing 5% HI FBS (Ser. No. 10/100,147, Invitrogen). The cells were further incubated for 4 days. The infected cell culture medium containing the baculovirus (P0 virus stock) was collected and amplified by further infecting the Sf9 cells at multiplicity of infection (MOI) (pfu/cell) of 0.1.
Quantification of BacMam Viral Titre by BacPAKRapid Titer
The viral titre, measured as plaque forming unit (pfu)/ml was determined using BacPAK Papid Titer Kit (631406, Clontech) according to the manufacturer's protocol. The Sf9 cells seeded in 96-well plate with 3×10^5 cells per well were incubated with serial dilution of the viral stocks for 1 h at 27° C., 50 μl methyl cellulose overlay was added to each well followed by 43-47 h incubation. The cells were then fixed in 4% paraformaldehyde (PFA). After blocking the cells with diluted normal goat serum, Mouse anti-gp64 antibody was added to the cells. After 30 min incubation, the cells were washed with phosphate buffered saline containing 0.1% Triton-X100 (PBST) and incubated for another 30 min with goat anti-mouse antibody/HRP conjugate. This was followed by blue peroxidase substrate which detects the single infected cells and foci of infected cells by their dark blue color. […]

[2] = target: LRRK2 Ser935 phosphorylation in SH-SY5Y cells over-expressing recombinant full length LRRK2 (Homo sapiens (Human), UniProt Q5S007); test: Recombinant cellular LRRK2 AlphaScreen assay; type: cell-based; details: 60 minutes, read-out: Recombinant cellular LRRK2 alphaScreen assay (pIC50) (converted)
Source text: To determine the activity of compounds against LRRK2 kinase activity in cells, the observed LRRK2 kinase-dependent modulation of LRRK2 Ser 935 phosphorylation (Dzamko et al., 2010, Biochem. J. 430: 405-413) was utilized to develop a quantitative 384 well plate-based immunoassay of LRRK2 Ser935 phosphorylation in the human neuroblastoma cell line SH-SY5Y, engineered to over-express recombinant full length LRRK2 protein.
A BacMam virus expressing full length recombinant LRRK2 was purchased from Invitrogen and amplified by inoculation of SF-9 cells at MOI 0.3 for 4-5 days in Sf-900 III SFM medium supplemented with 3% fetal bovine serum. Infected cell cultures were then centrifuged at 2000 g for 20 minutes, viral supernatant titer determined by anti-gp64 plaque assay and stored at 4° C.
Affinity-purified anti-phospho LRRK2 Ser935 sheep polyclonal antibody (Dzamko et al., 2010, Biochem. J. 430: 405-413) was biotinylated by standard methods (PerkinElmer). Anti-LRRK2 rabbit polyclonal antibody was purchased from Novus Biologicals. AlphaScreen Protein A IgG Kit (including acceptor and donor beads) was purchased from Perkin Elmer.
SH-SY5Y cells were grown in DMEM/F12 medium with 10% dialysed fetal bovine serum and harvested by treatment with 0.5% trypsin-EDTA for 5 minutes at 37° C. followed by centrifugation at 1000 rpm for 4 minutes. The cell pellet was resuspended in Opti-MEM reduced serum media (Invitrogen) at 200,000 cells/ml and mixed with the BacMam LRRK2 virus at M01=50. 50 μl cell solutions were then dispensed to each well of a 384-well plate and incubated at 37° C., 5% CO2 for 24 hours.
Serial dilutions of test compounds were prepared in Opti-MEM reduced serum media (Invitrogen) and 5.6 ul transferred from compound plate to cell assay plate to achieve a top final assay concentration of 10 uM. DMSO was used in certain wells as controls. Cells were incubated at 37° C., 5% CO2 for 60 minutes. The medium was then removed and cells lysed by addition of 20 ul cell lysis buffer (Cell Signaling Technology) and incubation at 4° C. for 20 minutes. 10 ul of antibody/acceptor bead mix [( 1/1000 biotinylated-pS935 LRRK2 antibody, 1/1000 total-LRRK2 antibody, 1/100 Acceptor beads in AlphaScreen detection buffer (25 mM Hepes (pH 7.4), 0.5% Triton X-100, 1 mg/ml Dextran 500 and 0.1% BSA)] was then added to each well and plates incubated for 2 hours at ambient temperature in the dark. 10 μl of donor beads solution (1/33.3 donor beads in AlphaScreen detection buffer) was then added to each well. Following incubation for a further 2 hours at ambient temperature in the dark, plates were read on an EnVision™ plate reader at emission 520-620 nm with excitation 680 nm. Dose response curve data was based on sigmoidal dose-response model.

[3] = target: Truncated G2019 human LRRK2 (1326-2527) (Homo sapiens (Human), UniProt Q5S007); test: Truncated G2019 human LRRK2 (1326-2527) inhibition mass spectrometry assay; type: biochemical; details: 6HIS-Tev-LRRK2 (1326-2527), 25 uM LRRKtide, 20 uM ATP; read-out: Truncated G2019 human LRRK2 inhibition mass spectrometry assay (pIC50) (converted)
Source text: 1) Truncated G2019 Human LRRK2 (1326-2527) Inhibition Mass Spectrometry Assay
A LRRK2 cDNA encoding residues 1326-2527 was received from Dundee University (described in M. Jaleel et al., 2007, Biochem J, 405: 407-417). This gene fragment was subcloned into pFB-HTb (Invitrogen) using BamHI and NotI restriction sites. The LRRK2 plasmid was recombined into the baculovirus genome according to the BAC-to-BAC protocol described by Invitrogen. Transfection into Spodoptera frugiperda (Sf9) insect cells was performed using Cellfectin (Invitrogen), according to the manufacturer's protocol to generate P1 and P2 baculovirus stocks.
Sf9 cells were grown in HyClone SFX (Thermo Scientific) growth media at 27° C., 80 rpm in shake flask until of a sufficient volume to inoculate a bioreactor. The cells were grown in a 20 litre working volume Wave bioreactor (GE Healthcare) at 27° C., 50% dissolved oxygen and an agitation rate 22 rocks per minute, 10 degree rock angle, 200 ml/min air with a cell concentration of approximately 6xe6 cells/ml. The cells were infected with P2 Baculovirus at a multiplicity of infection (MOI) of 3. The cultivation was continued for a 48 hour expression phase. The infected cells were removed from the growth media by centrifugation at 2500 g using a Sorvall RC 3C Plus centrifuge at 2500 g for 20 minutes. The cell pellet was immediately frozen and subsequently supplied for purification.
A 260 g pellet was allowed to thaw in a water bath at 27° C. with 800 ml lysis buffer/buffer A (50 mm Tris-HCl pH 8.5, 300 mM NaCl, 1 mm DTT, 10% glycerol, 1 ml/L Calbiochem complete protease inhibitor cocktail and benzonase (50 ul/800 ml)) before being dounce homogenised on ice using 20 strokes per 100 ml. The suspension was packed in ice and sonicated at 50% amplitude for 3 min 10 sec on/off using a ¾″ probe. The suspension was then centrifuged at 100,000 g for 90 min, at 4° C.
The lysate (700 ml) was decanted from the insoluble pellet and contacted for 3h at 4° C. with 10 ml His bind Ni NTA resin by end over end mixing. The resin was recovered by centrifugation, 3000 g, 5 min at 4° C., and packed in an XK16 column. The column was then washed with 10 column volumes buffer A, 10 column volumes buffer B (buffer A+1M NaCl) and 10 column volumes buffer C (buffer A+20 mM imidazole). The column was then eluted with 15 column volumes buffer D (buffer A+300 mM imidazole) collecting 2 ml fractions. All washes and elution were conducted at 4 ml/min.
Fractions identified by SDS-PAGE as containing protein of interest were pooled and loaded directly onto a 320 ml SEC Superdex 200 pg column that was pre-equilibrated with buffer E (50 mM Tris-HCl pH 8.5, 300 mM NaCl, 10% glycerol, 1 mM DTT). The column was loaded and eluted with 1.2 column volumes buffer E at 2 ml/min collecting 2 ml fractions. Fractions identified by SDS-PAGE as containing protein of interest were tested for activity.
Production of LRRKtide for LRRK2 Inhibition Mass Spectrometry Assay
The ‘LRRKtide’ peptide (SEQ ID NO. 10) was synthesized as follows. The protected peptide was assembled on a solid-phase synthesiser using preloaded Wang resin and utilising standard Fmoc synthesis protocols. The crude peptide was obtained after cleavage from the resin with a mixture of trifluoroacetic acid (TFA), triisopropylsilane and water (95:2.5:2.5) for 3 hours at room temperature and was then purified using a C18 reverse-phase column utilising a 0.1% TFA-buffered water/acetonitrile gradient. The resulting fractions were analysed and fractions which were >95% pure by analytical HPLC and giving the correct molecular weight (mw) (by MALDiTOF mass spectroscopy) were pooled and freeze dried. The final material was analysed by HPLC and MALDiTOF mass spectroscopy.
Truncated G2019 Human LRRK2 (1326-2527) Inhibition Mass Spectrometry Assay […]

LRRK2 Ser935 phosphorylation in SH-SY5Y cells over-expressing recombinant full length LRRK2, sequence (Q5S007 whole entry): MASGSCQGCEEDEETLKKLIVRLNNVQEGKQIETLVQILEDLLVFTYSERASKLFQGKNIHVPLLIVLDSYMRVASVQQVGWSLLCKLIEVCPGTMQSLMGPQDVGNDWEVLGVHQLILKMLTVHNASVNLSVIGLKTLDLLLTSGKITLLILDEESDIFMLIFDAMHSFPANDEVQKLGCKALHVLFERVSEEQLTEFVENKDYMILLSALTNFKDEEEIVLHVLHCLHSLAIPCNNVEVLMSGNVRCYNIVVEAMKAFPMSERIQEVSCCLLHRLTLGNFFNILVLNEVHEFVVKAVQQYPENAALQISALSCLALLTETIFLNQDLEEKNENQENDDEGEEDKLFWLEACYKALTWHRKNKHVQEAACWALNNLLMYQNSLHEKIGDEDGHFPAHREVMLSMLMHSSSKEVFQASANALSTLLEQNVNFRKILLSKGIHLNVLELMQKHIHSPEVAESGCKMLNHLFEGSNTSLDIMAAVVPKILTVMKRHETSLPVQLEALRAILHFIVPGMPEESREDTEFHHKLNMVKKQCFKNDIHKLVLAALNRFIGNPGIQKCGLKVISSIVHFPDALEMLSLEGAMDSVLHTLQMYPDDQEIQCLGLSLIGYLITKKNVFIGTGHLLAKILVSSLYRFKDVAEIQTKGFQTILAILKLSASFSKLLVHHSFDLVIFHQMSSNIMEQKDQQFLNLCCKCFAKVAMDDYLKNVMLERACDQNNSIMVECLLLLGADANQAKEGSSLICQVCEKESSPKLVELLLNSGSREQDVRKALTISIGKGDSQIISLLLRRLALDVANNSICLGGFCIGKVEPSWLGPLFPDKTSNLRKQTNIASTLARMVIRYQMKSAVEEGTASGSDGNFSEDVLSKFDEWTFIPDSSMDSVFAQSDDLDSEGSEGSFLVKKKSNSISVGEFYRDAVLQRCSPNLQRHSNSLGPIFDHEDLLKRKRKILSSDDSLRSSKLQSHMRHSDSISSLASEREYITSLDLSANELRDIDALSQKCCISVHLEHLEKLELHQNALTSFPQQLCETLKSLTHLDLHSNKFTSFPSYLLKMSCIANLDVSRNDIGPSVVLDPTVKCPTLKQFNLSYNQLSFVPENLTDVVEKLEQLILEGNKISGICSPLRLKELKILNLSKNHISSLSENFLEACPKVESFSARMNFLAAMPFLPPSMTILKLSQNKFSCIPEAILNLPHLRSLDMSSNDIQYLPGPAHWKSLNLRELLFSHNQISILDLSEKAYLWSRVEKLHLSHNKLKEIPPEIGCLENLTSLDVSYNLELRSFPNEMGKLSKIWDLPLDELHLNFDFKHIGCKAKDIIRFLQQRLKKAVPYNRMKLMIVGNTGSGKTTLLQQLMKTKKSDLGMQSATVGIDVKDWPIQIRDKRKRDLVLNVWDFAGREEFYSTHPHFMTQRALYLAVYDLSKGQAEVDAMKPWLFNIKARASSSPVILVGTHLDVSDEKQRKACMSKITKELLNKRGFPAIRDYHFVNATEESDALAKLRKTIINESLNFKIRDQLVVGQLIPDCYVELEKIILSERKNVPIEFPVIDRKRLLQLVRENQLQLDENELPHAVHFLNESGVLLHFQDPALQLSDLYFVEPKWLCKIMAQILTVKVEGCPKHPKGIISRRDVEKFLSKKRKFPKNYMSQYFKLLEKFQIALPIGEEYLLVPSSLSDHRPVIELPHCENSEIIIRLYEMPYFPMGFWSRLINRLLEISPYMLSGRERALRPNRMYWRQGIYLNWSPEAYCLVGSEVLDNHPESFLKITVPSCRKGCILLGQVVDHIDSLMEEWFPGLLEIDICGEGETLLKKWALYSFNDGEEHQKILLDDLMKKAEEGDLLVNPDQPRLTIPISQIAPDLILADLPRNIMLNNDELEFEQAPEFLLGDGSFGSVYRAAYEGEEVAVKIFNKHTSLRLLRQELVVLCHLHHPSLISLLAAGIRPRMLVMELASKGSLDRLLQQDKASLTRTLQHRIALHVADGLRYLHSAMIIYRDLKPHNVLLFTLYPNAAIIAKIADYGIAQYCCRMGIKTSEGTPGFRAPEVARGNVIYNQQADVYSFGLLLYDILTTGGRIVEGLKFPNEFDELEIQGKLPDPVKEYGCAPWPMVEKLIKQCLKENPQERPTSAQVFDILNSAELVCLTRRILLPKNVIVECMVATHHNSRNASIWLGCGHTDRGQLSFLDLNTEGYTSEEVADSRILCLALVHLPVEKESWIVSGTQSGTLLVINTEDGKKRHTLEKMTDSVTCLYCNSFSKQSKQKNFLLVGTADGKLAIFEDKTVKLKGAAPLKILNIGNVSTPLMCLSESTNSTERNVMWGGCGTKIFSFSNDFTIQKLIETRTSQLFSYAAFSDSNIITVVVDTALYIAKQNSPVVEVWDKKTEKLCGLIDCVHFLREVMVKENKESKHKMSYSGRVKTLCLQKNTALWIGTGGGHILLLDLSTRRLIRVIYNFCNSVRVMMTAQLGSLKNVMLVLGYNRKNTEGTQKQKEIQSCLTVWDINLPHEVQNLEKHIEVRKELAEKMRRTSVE
Full length G2019 human LRRK2, sequence (Q5S007 other isoform, or with tags, fused parts or gaps): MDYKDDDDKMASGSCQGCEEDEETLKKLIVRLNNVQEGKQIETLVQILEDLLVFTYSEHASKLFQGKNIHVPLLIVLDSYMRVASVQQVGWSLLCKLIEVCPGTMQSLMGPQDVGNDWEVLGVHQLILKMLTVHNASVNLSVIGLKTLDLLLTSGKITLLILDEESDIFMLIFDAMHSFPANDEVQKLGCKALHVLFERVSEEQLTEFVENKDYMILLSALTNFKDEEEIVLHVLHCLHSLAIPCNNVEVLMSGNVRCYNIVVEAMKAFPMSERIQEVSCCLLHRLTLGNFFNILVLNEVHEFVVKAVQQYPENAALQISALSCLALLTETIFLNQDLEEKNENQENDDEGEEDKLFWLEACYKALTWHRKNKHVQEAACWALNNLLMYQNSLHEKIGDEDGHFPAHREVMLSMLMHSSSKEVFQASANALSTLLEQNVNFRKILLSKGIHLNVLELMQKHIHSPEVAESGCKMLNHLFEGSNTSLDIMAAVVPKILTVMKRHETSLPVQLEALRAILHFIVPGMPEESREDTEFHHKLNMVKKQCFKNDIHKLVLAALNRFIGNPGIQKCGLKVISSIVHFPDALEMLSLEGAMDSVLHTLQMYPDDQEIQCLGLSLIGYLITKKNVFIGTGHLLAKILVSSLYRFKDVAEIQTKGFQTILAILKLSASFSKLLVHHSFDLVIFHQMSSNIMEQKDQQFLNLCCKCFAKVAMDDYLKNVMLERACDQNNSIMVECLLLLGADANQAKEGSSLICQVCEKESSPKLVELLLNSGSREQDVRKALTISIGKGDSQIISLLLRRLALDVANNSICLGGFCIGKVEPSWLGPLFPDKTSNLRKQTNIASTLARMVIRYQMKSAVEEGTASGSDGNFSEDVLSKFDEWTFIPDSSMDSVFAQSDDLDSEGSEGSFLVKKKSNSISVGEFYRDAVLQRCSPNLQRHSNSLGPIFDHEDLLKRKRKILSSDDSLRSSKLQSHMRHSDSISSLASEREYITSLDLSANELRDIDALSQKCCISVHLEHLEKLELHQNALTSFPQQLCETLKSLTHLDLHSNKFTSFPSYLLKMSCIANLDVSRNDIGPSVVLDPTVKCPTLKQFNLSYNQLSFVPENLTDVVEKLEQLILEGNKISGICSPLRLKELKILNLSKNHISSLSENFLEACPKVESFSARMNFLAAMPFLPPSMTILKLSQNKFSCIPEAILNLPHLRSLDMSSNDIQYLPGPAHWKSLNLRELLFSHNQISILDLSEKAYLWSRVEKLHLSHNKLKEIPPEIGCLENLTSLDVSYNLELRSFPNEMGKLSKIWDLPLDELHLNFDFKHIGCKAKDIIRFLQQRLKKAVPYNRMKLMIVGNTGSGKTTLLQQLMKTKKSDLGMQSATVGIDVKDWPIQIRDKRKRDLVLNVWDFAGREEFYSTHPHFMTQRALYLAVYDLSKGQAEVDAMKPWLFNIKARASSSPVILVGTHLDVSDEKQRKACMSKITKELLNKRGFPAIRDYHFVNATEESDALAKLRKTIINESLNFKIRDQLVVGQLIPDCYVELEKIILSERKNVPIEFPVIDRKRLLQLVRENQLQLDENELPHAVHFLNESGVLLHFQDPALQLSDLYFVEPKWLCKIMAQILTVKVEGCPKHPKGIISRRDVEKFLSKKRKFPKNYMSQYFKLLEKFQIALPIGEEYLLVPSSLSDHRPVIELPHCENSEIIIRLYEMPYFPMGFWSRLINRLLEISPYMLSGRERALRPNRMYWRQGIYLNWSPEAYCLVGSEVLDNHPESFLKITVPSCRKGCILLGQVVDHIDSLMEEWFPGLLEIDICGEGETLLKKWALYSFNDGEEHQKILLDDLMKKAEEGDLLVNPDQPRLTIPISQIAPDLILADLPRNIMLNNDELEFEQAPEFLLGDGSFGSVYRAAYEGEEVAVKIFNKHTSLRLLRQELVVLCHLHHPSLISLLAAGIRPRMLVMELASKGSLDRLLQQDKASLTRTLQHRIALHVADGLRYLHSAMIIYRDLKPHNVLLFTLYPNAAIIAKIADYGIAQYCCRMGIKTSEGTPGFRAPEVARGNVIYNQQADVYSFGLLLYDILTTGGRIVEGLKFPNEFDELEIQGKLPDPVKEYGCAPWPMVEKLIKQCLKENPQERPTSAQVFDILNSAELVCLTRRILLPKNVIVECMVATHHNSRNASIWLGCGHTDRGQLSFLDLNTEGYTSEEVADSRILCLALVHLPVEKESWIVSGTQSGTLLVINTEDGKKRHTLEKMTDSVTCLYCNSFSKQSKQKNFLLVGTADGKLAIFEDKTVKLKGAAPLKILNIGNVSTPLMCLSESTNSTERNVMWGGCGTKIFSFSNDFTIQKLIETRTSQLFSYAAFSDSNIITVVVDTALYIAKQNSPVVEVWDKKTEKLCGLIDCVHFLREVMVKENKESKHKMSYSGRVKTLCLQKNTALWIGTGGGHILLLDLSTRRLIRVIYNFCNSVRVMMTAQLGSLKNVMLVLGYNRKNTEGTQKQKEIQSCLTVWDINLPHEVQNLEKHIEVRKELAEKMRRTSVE

Compound	IC50 [1]	IC50 [2]	IC50 [3]
Cc1nc(N2CC(O)C2)cc(-n2ncc3cc(C)c(C4CCN(C5COC5)CC4F)cc32)n1 (single isomer, unassigned) [Example E42, (cis)-1-(6-(6-(3-Fluoro-1-(oxetan-3-yl)piperidin-4-yl)-5-methyl-1H-indazol-1-yl)-2-methylpyrimidin-4-yl)azetidin-3-ol]	≤ 10000 nM	≤ 100 nM	–
Cc1nc(-n2ncc3cc(C)c(C4CCN(C5COC5)CC4F)cc32)cc([C@H]2C[C@@H](O)C2)n1 (single isomer, unassigned) [Example E45, (cis)-(1s,3s)-3-(6-(6-(3-Fluoro-1-(oxetan-3-yl)piperidin-4-yl)-5-methyl-1H-indazol-1-yl)-2-methylpyrimidin-4-yl)cyclobutanol]	≤ 10000 nM	–	–
COc1nc(N2CCO[C@@H](CO)C2)cc(-n2ncc3cc(C)c(C4CCN(C5COC5)CC4F)cc32)n1 (single isomer, unassigned) [Example E170]	7.94 nM	5.01 nM	–

Second part, the compound after the results:

IC50 [1]	IC50 [2]	IC50 [3]	Compound
251 nM	631 nM	–	COc1nc(N2CC(O)C2)cc(-n2ncc3cc(C)c(C4CN(C)CCO4)cc32)n1 (single isomer, unassigned) [Example E230, 1-(2-Methoxy-6-(5-methyl-6-(4-methylmorpholin-2-yl)-1H-indazol-1-yl)pyrimidin-4-yl)azetidin-3-ol]
–	10 nM	12.6 nM	COc1nc(N2CC(O)C2)cc(-n2ncc3cc(C)c(C4CCN(C5COC5)CC4)cc32)n1 [Example E79, 1-(2-Methoxy-6-(5-methyl-6-(1-(oxetan-3-yl)piperidin-4-yl)-1H-indazol-1-yl)pyrimidin-4-yl)azetidin-3-ol]
≤ 10000 nM	≤ 100 nM	–	COc1nc(N2CC(C)(O)C2)cc(-n2ncc3cc(C)c(C4CCN(C5COC5)CC4)cc32)n1 [Example E80, 1-(2-Methoxy-6-(5-methyl-6-(1-(oxetan-3-yl)piperidin-4-yl)-1H-indazol-1-yl)pyrimidin-4-yl)-3-methylazetidin-3-ol]
–	631 nM	25.1 nM	COc1nc(N2CCNCC2)cc(-n2ncc3cc(C)c(N4CCOCC4)cc32)n1 [Example E117, 4-(1-(2-Methoxy-6-(piperazin-1-yl)pyrimidin-4-yl)-5-methyl-1H-indazol-6-yl)morpholine]

Reference: US10975081B2, “Substituted fused pyrazole compounds and their use as LRRK2 inhibitors” (GlaxoSmithKline Intellectual Property Development Limited, priority 2015, dated 2021)
